What was measured:
rats [1] = assay: cardiovascular and respiratory parameters after application to the buccal cavity of anaesthetised rats; type: in vivo, rat
Text: (§1) In separate experiments, the effects of bethanechol (saturated solution, see above) were compared with those of physostigmine (1% solution in saline) on cardiovascular and respiratory parameters when applied to the buccal cavity of rats. Anaesthesia was induced in animals with urethane (1.75 g/kg given i.p.). Each animal was artificially ventilated via a tracheal cannula that was connected to a Fleisch (size 00) pneumotachograph and a pressure transducer (pressure range ±2 cm H2O). […] The left carotid artery was cannulated for recording blood pressure and heart rate, and the left jugular vein cannulated for drug administration. For topical administration, after 15-30 minutes a Parafilm ball was inserted into the back of the oral cavity to prevent the loss of solution into the oesophagus and airways. At T−10 minutes a cotton wool ball was inserted into the oral cavity and 10 minutes later it was removed and excess saliva wiped away. At T=O minutes physostigmine (1%, 10 microliters each on left and right sides) or bethanechol (10 microliters each on left and right sides) were instilled using a pipette. At T=10 minutes, another cotton wool ball was inserted into the oral cavity, 10 min later, it was removed and the excess saliva wiped away. The effects on baseline cardiovascular and respiratory parameters were recorded over 90 minutes. Physostigmine produced changes in all measured parameters, the mean maximum effects seen during the observation period were for pulmonary inflation pressure 44% increase, mean arterial pressure 17% decrease and heart rate 9.3% decrease (all n=2). In contrast, bethanechol produced minimal (and not significant) effects on any of these parameters, the mean maximum changes being 0% change, 3% decrease and 1% decrease for pulmonary inflation pressure, mean arterial pressure and heart rate respectively (n=3).

male Sprague-Dawley rats = assay: efficacy study: saliva production after topical instillation into the oral cavity of anaesthetised rats; type: in vivo, rat; conditions: saturated solution
Protocol: In the experiments outlined below, bethanechol chloride for buccal administration was prepared as a saturated solution in a solvent mixture comprising PEG 400, glycerol, ethanol and sodium phosphate buffer. Specific solvent amounts were 30% PEG 400, 30% glycerol, 20% ethanol with 20% phosphate buffer (formed by mixing 50 ml of 0.1M sodium phosphate monobasic (monohydrate) with sufficient 0.1M sodium phosphate dibasic (heptahydrate) until a pH of 5.5 was achieved). Bethanechol chloride was present at up to 33%.
In order to prepare a saturated solution of bethanechol chloride the following method was used. A magnetic flea was placed into a 20 ml scintillation vial and the weight of both was recorded. Exactly 0.8 g of the pH 5.5 buffer solution was placed into the container. […] Once the saturated solution (containing un-dissolved bethanechol) had been achieved, the vial was placed onto a balance and the total weight recorded. […] The amounts of ethanol, glycerol and PEG 400 were calculated to make a solution containing 30% PEG 400, 30% glycerol, 20% ethanol and 20% buffer and bethanechol. […]
Saliva production data were analysed by repeated measures two-way ANOVA followed by Bonferronis post tests (GraphPad Prism version 5.0, GraphPad Software, San Diego, Calif., USA). […]

rats [2] = assay: cardiovascular and respiratory effects after intravenous administration in rats; type: in vivo, rat; conditions: n=3
Text: as §1
For an additional comparison, the effects of bethanechol (prepared in saline, dosing volume 0.1 ml) over a dose range of 0.3 micrograms/kg to 300 micrograms/kg administered intravenously were studied in rats. Doses were administered in ascending order to each animal (n=3) and cardiovascular and respiratory effects monitored over 5 minutes or until the recorded parameter had returned to baseline (whichever was the later). […] The effects observed with bethanechol at 300 micrograms/kg were mean arterial pressure 72% decrease, heart rate 69% decrease and pulmonary inflation pressure 30% increase.

patients with xerostomia = assay: clinical study in patients with xerostomia, buccal solution versus placebo; type: in vivo, human; conditions: approximately 0.5 ml solution retained against the buccal mucosa for 1 to 2 minutes and then swallowed, crossover versus placebo
Protocol: A cohort of approximately 20 patients with xerostomia is randomised to receive either placebo or bethanechol formulation or vice versa with at least 3 days washout between the treatment segments. Each treatment is given as a small volume (approximately 0.5 ml) solution to be retained against the buccal mucosa for 1 to 2 minutes and then swallowed. Clinical investigations include vital signs, haematology/chemistry and appearance of the buccal mucosa. Efficacy measurements include salivary flow and composition of major and minor glands using standard techniques (see e.g. Ferguson 1999, Archives of Oral Biol., 44:S11-S14; Boros et al., Archives of Oral Biol., 44:S59-S62) and the assessment of subjective oral dryness/comfort using validated measures (see e.g. Chainani-Wu et al., 2006, Spec. Care Dentist 26(4):164-170).

[3] = buccal, 10 microliters each on left and right sides, recorded over 90 minutes, physostigmine 1% (n=2), bethanechol saturated solution (n=3)

SMILES | heart rate, mean maximum effect (decrease) (rats [1]; [3]) [%] | mean arterial pressure, mean maximum effect (decrease) (rats [1]; [3]) [%] | pulmonary inflation pressure, mean maximum effect (increase) (rats [1]; [3]) [%] | salivary output (male Sprague-Dawley rats; applied topically, for up to 70 minutes) | increase of total saliva production above vehicle effect (male Sprague-Dawley rats; 10 microliters on each side of the mouth, 70 minute collection period, P less than 0.01, n=4) [%] | heart rate, mean maximum effect (decrease) (rats [1]; rat, in vivo) [%] | mean arterial pressure, mean maximum effect (decrease) (rats [1]; rat, in vivo) [%] | pulmonary inflation pressure, mean maximum effect (increase) (rats [1]; rat, in vivo) [%] | heart rate decrease (rats [2]; 0.3 micrograms/kg, in saline) [%] | mean arterial pressure decrease (rats [2]; 0.3 micrograms/kg, in saline) [%] | heart rate decrease (rats [2]; 300 micrograms/kg, in saline) [%] | mean arterial pressure decrease (rats [2]; 300 micrograms/kg, in saline) [%] | pulmonary inflation pressure increase (rats [2]; 300 micrograms/kg, in saline) [%] | dose at which increases in pulmonary inflation pressure were seen (rats [2]; ascending doses 0.3 to 300 micrograms/kg) [micrograms/kg] | salivary flows (patients with xerostomia) | subjective oral dryness/comfort scores (patients with xerostomia)
CNC(=O)Oc1ccc2c(c1)[C@]1(C)CCN(C)[C@@H]1N2C [physostigmine] | 9.3 | 17 | 44 |  |  |  |  |  |  |  |  |  |  |  |  | 
CC(C[N+](C)(C)C)OC(N)=O (stereo not shown) [bethanechol, Bethanechol chloride] |  |  |  | sustained and significant increase | 72 | 1 | 3 | 0 | 6 | 31 | 69 | 72 | 30 | ≥ 3 | increase salivary flows | improve subjective oral dryness/comfort scores

Reference: patent US10137084B2, “Use of bethanechol for treatment of xerostomia” (priority 2009, dated 2018)
